Results: US12643892B2, “Pyridazinone compounds for the treatment of neuromuscular diseases” (Edgewise Therapeutics, Inc., priority 2020, dated 2026)

Target: Skeletal Myofibril ATPase (Rabbit Psoas myofibrils)
Assay: Skeletal Myofibril ATPase Assay
Assay type: biochemical
Settings: PK/LDH-coupled NADH absorbance at 340 nm
Experimental: Overview: Myosin ATPase activity was assessed by using a coupled reaction system, in which ADP generated by the myosin ATPase function was coupled to the disappearance of NADH through the pyruvate kinase/lactate dehydrogenase (PK-LDH) system. Myosin ATPase activity produces ADP, which was used as a substrate for PK to produce pyruvate and regenerate ATP. The pyruvate was then used as a substrate by LDH to oxidize NADH to NAD+. The rate of the reaction was monitored through the time-dependent disappearance of NADH using absorbance at 340 nm. Inhibition of ATPase activity by the assayed compounds was indicated by a reduced rate of NADH loss, relative to vehicle-treated controls, over the experimental time window. To assess the selectivity of the assayed compounds for skeletal myofibrils, the compounds were counter-screened in cardiac myofibrils.
Materials: The following stock solutions and reagents were used in the Skeletal Myofibril ATPase Assay:
Stock Solutions of pCa buffer. Combine PIPES, CaCl2, and EGTA solutions with 70 mL of water. Adjust pH to 7.0 and bring final volume to 100 mL.
Buffer A & Buffer B. Buffers were stored on ice until use.
Skeletal Myofibril ATPase Assay Procedure: BSA, ATP, NADH, PEP, and DTT solutions were thawed at room temperature, then transferred to ice. Pellet-frozen myofibrils (approximately twice the required volume) were transferred into a sufficiently large tube and capped. Myofibrils were thawed by rolling in a water bath for approximately 15 min at room temperature and cooled on ice. Buffers A and B were prepared by adjusting volumes as necessary for required number of wells and stored on ice. 0.5 μL of the compounds to be assayed were added into wells of a 384-well plate. Buffers A and B were mixed by inversion immediately prior to use, then 25 μL of each was dispensed using a Multidrop dispenser (Buffer A first, then Buffer B). The absorbance within the wells was measured at 340 nm, using a kinetic protocol in which the wells are read every 1.5-2 min for 1 h. The reaction rate was qualitatively assessed by subtracting the minimum absorbance value from the maximum value for each well, using either the SoftMax Pro plate reader software or a spreadsheet program such as Excel. Using GraphPad Prism 8.0, the data was normalized, with 100% activity defined as the absorbance change in the 1% DMSO vehicle wells and 0% assigned to no change in absorbance over the course of the experiment. The normalized data were fit to a variable-slope four-parameter logistic model, constraining the bottom to be 0 or greater. Compounds of Table 1 to 3 were tested and results of the assay appear in Table 4 herein. A=IC50 is less than or equal to 10 μM; B=IC50 is greater than 10 μM and less than 100 μM; C=IC50 is greater than 100 μM.

Structure (SMILES)	IC50
CCNC(=O)Cn1nc(-c2nc(-c3cccc(OC(F)F)c3)no2)ccc1=O [Compound 7, 2-(3-(3-(3-(difluoromethoxy)phenyl)-1,2,4-oxadiazol-5-yl)-6-oxopyridazin-1(6H)-yl)-N-ethylacetamide]	≤ 10 µM
Cc1ccc(-c2ccc(=O)n(CC(=O)NCc3ccccc3F)n2)s1 [Compound 34, N-(2-fluorobenzyl)-2-(3-(5-methylthiophen-2-yl)-6-oxopyridazin-1(6H)-yl)acetamide]	≤ 10 µM
O=C(Cn1nc(-c2cccs2)ccc1=O)Nc1ccc(Cl)cc1Cl [Compound 42, N-(2,4-dichlorophenyl)-2-(6-oxo-3-(thiophen-2-yl)pyridazin-1(6H)-yl)acetamide]	> 100 µM
O=C(Cn1nc(-c2cccs2)ccc1=O)Nc1ccccc1 [Compound 43, 2-(6-oxo-3-(thiophen-2-yl)pyridazin-1(6H)-yl)-N-phenylacetamide]	> 100 µM
O=c1ccc(-c2nc(-c3cncc(Cl)c3)no2)nn1Cc1ccccc1 [Compound 66, 2-benzyl-6-(3-(5-chloropyridin-3-yl)-1,2,4-oxadiazol-5-yl)pyridazin-3(2H)-one]	≤ 10 µM
CCNC(=O)Cn1nc(-c2nnc(C34CC(C3)C4)s2)ccc1=O [Compound 32, 2-(3-(5-(bicyclo[1.1.1]pentan-1-yl)-1,3,4-thiadiazol-2-yl)-6-oxopyridazin-1(6H)-yl)-N-ethylacetamide]	≤ 10 µM
CCNC(=O)Cn1nc(-c2nc(-c3ccccc3)no2)ccc1=O [Compound 16, N-ethyl-2-(6-oxo-3-(3-phenyl-1,2,4-oxadiazol-5-yl)pyridazin-1(6H)-yl)acetamide]	≤ 10 µM
O=C(Cn1nc(-c2nnc(-c3cc(Cl)ccc3Cl)s2)ccc1=O)NC1CCC1 [Compound 18, N-cyclobutyl-2-(3-(5-(2,5-dichlorophenyl)-1,3,4-thiadiazol-2-yl)-6-oxopyridazin-1(6H)-yl)acetamide]	≤ 10 µM
CCNC(=O)Cn1nc(-c2nc(-c3cccc(C(F)(F)F)c3)no2)ccc1=O [Compound 11, N-ethyl-2-(6-oxo-3-(3-(3-(trifluoromethyl)phenyl)-1,2,4-oxadiazol-5-yl)pyridazin-1(6H)-yl)acetamide]	≤ 10 µM
CCNC(=O)Cn1nc(-c2nc(-c3cccc(OC(F)(F)F)c3)no2)ccc1=O [Compound 6, N-ethyl-2-(6-oxo-3-(3-(3-(trifluoromethoxy)phenyl)-1,2,4-oxadiazol-5-yl)pyridazm-1(6H)-yl)acetamide]	≤ 10 µM
CCNC(=O)Cn1nc(-c2nc(-c3cccc(Cl)c3)no2)ccc1=O [Compound 14, 2-(3-(3-(3-chlorophenyl)-1,2,4-oxadiazol-5-yl)-6-oxopyridazin-1(6H)-yl)-N-ethylacetamide]	≤ 10 µM
Cc1cnc(-c2ccc(=O)n(CC(=O)NCc3ccccc3Cl)n2)s1 [Compound 26, N-(2-chlorobenzyl)-2-(3-(5-methylthiazol-2-yl)-6-oxopyridazin-1(6H)-yl)acetamide]	≤ 10 µM
O=c1ccc(-c2nc(-c3cccnc3)no2)nn1Cc1ccccc1 [Compound 67, 2-benzyl-6-(3-(pyridin-3-yl)-1,2,4-oxadiazol-5-yl)pyridazin-3(2H)-one]	10 to 100 µM
CCCNC(=O)Cn1nc(-c2nc(-c3ccc(Cl)cc3)no2)ccc1=O [Compound 51, 2-(3-(3-(4-chlorophenyl)-1,2,4-oxadiazol-5-yl)-6-oxopyridazin-1(6H)-yl)-N-propylacetamide]	≤ 10 µM
CCNC(=O)Cn1nc(-c2nc(-c3cccnc3)no2)ccc1=O [Compound 13, N-ethyl-2-(6-oxo-3-(3-(pyridin-3-yl)-1,2,4-oxadiazol-5-yl)pyridazin-1(6H)-yl)acetamide]	10 to 100 µM
O=C(Cn1nc(-c2cccs2)ccc1=O)Nc1ccc2cc[nH]c2c1 [Compound 48, N-(1H-indol-6-yl)-2-(6-oxo-3-(thiophen-2-yl)pyridazin-1(6H)-yl)acetamide]	> 100 µM
CCCNC(=O)Cn1nc(-c2nc(-c3cccnc3)no2)ccc1=O [Compound 50, 2-(6-oxo-3-(3-(pyridin-3-yl)-1,2,4-oxadiazol-5-yl)pyridazin-1(6H)-yl)-N-propylacetamide]	10 to 100 µM
Cc1ccc(-c2ccc(=O)n(CC(=O)NC3CCCCC3)n2)s1 [Compound 44, N-cyclohexyl-2-(3-(5-methylthiophen-2-yl)-6-oxopyridazin-1(6H)-yl)acetamide]	> 100 µM
CCNC(=O)Cn1nc(-c2nc(-c3cccc(Cl)c3)co2)ccc1=O [Compound 30, 2-(3-(4-(3-chlorophenyl)oxazol-2-yl)-6-oxopyridazin-1(6H)-yl)-N-ethylacetamide]	≤ 10 µM
CCNC(=O)Cn1nc(-c2nc(C3CC3)no2)ccc1=O [Compound 15, 2-(3-(3-cyclopropyl-1,2,4-oxadiazol-5-yl)-6-oxopyridazin-1(6H)-yl)-N-ethylacetamide]	10 to 100 µM
CCNC(=O)Cn1nc(-c2ncc(-c3cccc(Cl)c3)o2)ccc1=O [Compound 27, 2-(3-(5-(3-chlorophenyl)oxazol-2-yl)-6-oxopyridazin-1(6H)-yl)-N-ethylacetamide]	≤ 10 µM
CCNC(=O)Cn1nc(-c2ncc(-c3cccc(Cl)c3)s2)ccc1=O [Compound 25, 2-(3-(5-(3-chlorophenyl)thiazol-2-yl)-6-oxopyridazin-1(6H)-yl)-N-ethylacetamide]	≤ 10 µM
O=C(Cn1nc(-c2cccs2)ccc1=O)Nc1ccc2c(c1)OCCO2 [Compound 46, N-(2,3-dihydrobenzo[b][1,4]dioxin-6-yl)-2-(6-oxo-3-(thiophen-2-yl)pyridazin-1(6H)-yl)acetamide]	> 100 µM

Second part, the compound after the results:

IC50	Structure (SMILES)
> 120 µM	O=c1ccc(-c2nc(-c3ccc(Cl)cc3)no2)cn1Cc1ccc(Cl)c(Cl)c1 [Compound 124, 5-(3-(4-chlorophenyl)-1,2,4-oxadiazol-5-yl)-1-(3,4-dichlorobenzyl)pyridm-2(1H)-one]
≤ 10 µM	O=c1ccc(-c2nc(-c3cccc(F)c3)no2)cn1Cc1cccnc1 [Compound 102, 5-(3-(3-fluorophenyl)-1,2,4-oxadiazol-5-yl)-1-(pyridin-3-ylmethyl)pyridin-2(1H)-one]
≤ 10 µM	Cc1cccc(-c2noc(-c3ccc(=O)n(Cc4ncc(C)s4)c3)n2)c1 [Compound 92, 1-((5-methylthiazol-2-yl)methyl)-5-(3-(m-tolyl)-1,2,4-oxadiazol-5-yl)pyridin-2(1H)-one]
≤ 10 µM	Cc1cccc(-c2noc(-c3ccc(=O)n(Cc4cncc(Cl)c4)c3)n2)c1 [Compound 90, 1-((5-chloropyridin-3-yl)methyl)-5-(3-(m-tolyl)-1,2,4-oxadiazol-5-yl)pyridin-2(1H)-one]
≤ 10 µM	O=c1ccc(-c2nc(-c3ccc(F)cc3)no2)cn1Cc1cccnc1 [Compound 104, 5-(3-(4-fluorophenyl)-1,2,4-oxadiazol-5-yl)-1-(pyridin-3-ylmethyl)pyridin-2(1H)-one]
≤ 10 µM	Cc1cccc(-c2noc(-c3ccc(=O)n(Cc4cncc(C#N)c4)c3)n2)c1 [Compound 98, 5-((2-oxo-5-(3-(m-tolyl)-1,2,4-oxadiazol-5-yl)pyridin-1(2H)-yl)methyl)nicotinoni trile]
10 to 100 µM	O=c1ccc(-c2nc(-c3cncc(F)c3)no2)cn1Cc1cccnc1 [Compound 108, 5-(3-(5-fluoropyridin-3-yl)-1,2,4-oxadiazol-5-yl)-1-(pyridin-3-ylmethyl)pyridin-2(1H)-one]
≤ 10 µM	O=c1ccc(-c2nnc(-c3cccc(Cl)c3)o2)nn1Cc1ccccc1 [Compound 73, 2-benzyl-6-(5-(3-chlorophenyl)-1,3,4-oxadiazol-2-yl)pyridazin-3(2H)-one]
10 to 100 µM	O=c1ccc(-n2cncn2)nn1Cc1ccc(Cl)cc1 [Compound 79, 2-(4-chlorobenzyl)-6-(1H-1,2,4-triazol-1-yl)pyridazin-3(2H)-one]
> 120 µM	O=c1ccc(-c2nc(-c3ccncc3)no2)cn1Cc1ccccc1C(F)(F)F [Compound 120, 5-(3-(pyridin-4-yl)-1,2,4-oxadiazol-5-yl)-1-(2-(trifluoromethyl)benzyl)pyridin-2(1H)-one]
≤ 10 µM	COc1cccc(-c2noc(-c3ccc(=O)n(Cc4cccnc4)c3)n2)c1 [Compound 101, 5-(3-(3-methoxyphenyl)-1,2,4-oxadiazol-5-yl)-1-(pyridin-3-ylmethyl)pyridin-2(1H)-one]
≤ 10 µM	Cc1cccc(-c2noc(-c3ccc(=O)n(Cc4ccc(OC(F)F)nc4)c3)n2)c1 [Compound 93, 1-((6-(difluoromethoxy)pyridin-3-yl)methyl)-5-(3-(m-tolyl)-1,2,4-oxadiazol-5-yl)pyridin-2(1H)-one]
